Measurements published in US20230167088A1, “1-PYRAZINYLPYRAZOLYL-3-OXYALKYL ACIDS AND THEIR DERIVATIVES, AND THEIR USE FOR CONTROL OF UNDESIRED PLANT GROWTH” (BAYER AKTIENGESELLSCHAFT, priority 2020, published 2023).

Tests used:
STEME [1] = experiment: Herbicidal pre-emergence action 2b (doubly sown, 1280 g/ha); assay type: in vivo, Stellaria media; conditions: doubly sown pots, dosage 1280 g/ha, visual scoring after about 3 weeks
How it was run: (§1)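 Visual % scores against untreated plants (0% = like control, 100% = dead) were taken roughly 3 weeks after treatment in the greenhouse. Compounds, as WP or EC with 0.5% additive, were applied in 600 l/ha water onto covering soil over seeds of paired mono-/dicot weeds in sandy loam.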

DIGSA = experiment: Herbicidal pre-emergence action 2a (greenhouse pots, visual scoring); assay type: in vivo, Digitaria sanguinalis; conditions: dosage 320 g/ha, visual scoring after about 3 weeks
How it was run: (§2)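 Visual scoring after roughly 3 weeks, as percent effect relative to untreated pots (0% = like control, 100% = dead). Seeds were covered with soil, then the surface received aqueous WP/EC suspension or emulsion (0.5% additive, 600 l/ha) at 320 and/or 80 g/ha.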

HORMU = experiment: Herbicidal post-emergence action 1a (greenhouse pots, visual rating); assay type: in vivo, Hordeum murinum; conditions: rated visually about 3 weeks after treatment, 100% = plants have died, 0% = like control plants
Description: (§3) [table] a) Seeds of monocotyledonous and dicotyledonous weeds and crop plants are placed in sandy loam in plastic or organic plant pots, covered with soil and cultivated in a greenhouse under controlled growth conditions. 2 to 3 weeks after sowing, the test plants are treated at the one-leaf stage. The compounds of the invention, formulated in the form of wettable powders (WP) or as emulsion concentrates (EC), are then sprayed onto the green parts of the plants as aqueous suspension or emulsion with addition of 0.5% additive at a water application rate of 600 1/ha (converted). After the test plants have been kept in the greenhouse under optimum growth conditions for about 3 weeks, the activity of the preparations is rated visually in comparison to untreated controls. For example, 100% activity=the plants have died, 0% activity=like control plants. Tables A1 to A15 below show the effects of selected compounds of the general formula (I) according to Tables 1 and 2 on various harmful plants and an application rate corresponding to 320 g/ha and/or 80 g/ha, which were obtained by the experimental procedure mentioned above.

SETVI [2] = experiment: Herbicidal pre-emergence action 2a (greenhouse pots, visual scoring); assay type: in vivo, Setaria viridis; conditions: dosage 320 g/ha, visual scoring after about 3 weeks vs untreated controls
How it was run: as §2

AVEFA [3] = experiment: as above; assay type: in vivo, Avena fatua; conditions: dosage 320 g/ha, visual scoring after about 3 weeks
How it was run: as §2

MATIN [4] = experiment: Herbicidal pre-emergence action 2b (doubly sown, 1280 g/ha); assay type: in vivo, Matricaria inodora; conditions: doubly sown pots, dosage 1280 g/ha, visual scoring after about 3 weeks
How it was run: as §1

LOLRI [5] = experiment: Herbicidal post-emergence action 1a (greenhouse pots, visual rating); assay type: in vivo, Lolium rigidum; conditions: rated visually about 3 weeks after treatment, 100% = plants have died, 0% = like control plants
How it was run: (§4)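 Visual scoring versus untreated plants (100% = plants dead, 0% = as control) followed roughly 3 weeks in the greenhouse after treatment. Plants grown in sandy loam pots had been sprayed on green parts at the one-leaf stage, 2–3 weeks post-sowing, with aqueous WP/EC preparations containing 0.5% additive, 600 l/ha, at 320 and/or 80 g/ha.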

POAAN = experiment: Herbicidal pre-emergence action 2b (doubly sown, 1280 g/ha); assay type: in vivo, Poa annua; conditions: doubly sown pots, dosage 1280 g/ha, visual scoring after about 3 weeks
How it was run: as §1

ECHCG [6] = experiment: Herbicidal pre-emergence action 2a (greenhouse pots, visual scoring); assay type: in vivo, Echinochloa crus-galli; conditions: dosage 320 g/ha, visual scoring after about 3 weeks
How it was run: as §2

VIOTR [7] = experiment: Herbicidal post-emergence action 1a (greenhouse pots, visual rating); assay type: in vivo, Viola tricolor; conditions: visual rating about 3 weeks after treatment
How it was run: as §4

POLCO [8] = experiment: as above; assay type: in vivo, Polygonum convolvulus; conditions: visual rating about 3 weeks after treatment
How it was run: as §4

POLCO [9] = experiment: Herbicidal pre-emergence action 2a (greenhouse pots, visual scoring); assay type: in vivo, Polygonum convolvulus; conditions: dosage 320 g/ha, visual scoring after about 3 weeks vs untreated controls
How it was run: as §2

ECHCG [10] = experiment: Herbicidal post-emergence action 1a (greenhouse pots, visual rating); assay type: in vivo, Echinochloa crus-galli; conditions: rated visually about 3 weeks after treatment, 100% = plants have died, 0% = like control plants
How it was run: as §4

LOLRI [11] = experiment: Herbicidal pre-emergence action 2a (greenhouse pots, visual scoring); assay type: in vivo, Lolium rigidum; conditions: dosage 320 g/ha, visual scoring after about 3 weeks vs untreated controls
How it was run: as §2

ECHCG [12] = experiment: Herbicidal pre-emergence action 2b (doubly sown, 1280 g/ha); assay type: in vivo, Echinochloa crus-galli; conditions: doubly sown pots, dosage 1280 g/ha, visual scoring after about 3 weeks
How it was run: as §1

ALOMY [13] = experiment: Herbicidal pre-emergence action 2a (greenhouse pots, visual scoring); assay type: in vivo, Alopecurus myosuroides; conditions: dosage 320 g/ha, visual scoring after about 3 weeks
How it was run: as §2

VERPE [14] = experiment: Herbicidal post-emergence action 1a (greenhouse pots, visual rating); assay type: in vivo, Veronica persica; conditions: visual rating about 3 weeks after treatment
How it was run: as §4

VIOTR [15] = experiment: Herbicidal pre-emergence action 2a (greenhouse pots, visual scoring); assay type: in vivo, Viola tricolor; conditions: dosage 320 g/ha, visual scoring after about 3 weeks vs untreated controls
How it was run: as §2

ALOMY [16] = experiment: Herbicidal post-emergence action 1a (greenhouse pots, visual rating); assay type: in vivo, Alopecurus myosuroides; conditions: rated visually about 3 weeks after treatment, 100% = plants have died, 0% = like control plants
How it was run: as §4

AMARE [17] = experiment: Herbicidal pre-emergence action 2a (greenhouse pots, visual scoring); assay type: in vivo, Amaranthus retroflexus; conditions: dosage 320 g/ha, visual scoring after about 3 weeks vs untreated controls
How it was run: as §2

STEME [18] = experiment: Herbicidal post-emergence action 1a (greenhouse pots, visual rating); assay type: in vivo, Stellaria media; conditions: Dosage 320 g/ha; rated visually about 3 weeks after treatment; 100% = plants have died, 0% = like control plants
Description: as §3

AVEFA [19] = experiment: as above; assay type: in vivo, Avena fatua; conditions: rated visually about 3 weeks after treatment, 100% = plants have died, 0% = like control plants
How it was run: as §4

AMARE [20] = experiment: Herbicidal pre-emergence action 2b (doubly sown, 1280 g/ha); assay type: in vivo, Amaranthus retroflexus; conditions: doubly sown pots, dosage 1280 g/ha, visual scoring after about 3 weeks
How it was run: as §1

SETVI [21] = experiment: Herbicidal post-emergence action 1a (greenhouse pots, visual rating); assay type: in vivo, Setaria viridis; conditions: rated visually about 3 weeks after treatment, 100% = plants have died, 0% = like control plants
How it was run: as §4

ABUTH [22] = experiment: as above; assay type: in vivo, Abutilon theophrasti; conditions: visual rating about 3 weeks after treatment
How it was run: as §4

AMARE [23] = experiment: as above; assay type: in vivo, Amaranthus retroflexus; conditions: visual rating about 3 weeks after treatment
How it was run: as §4

MATIN [24] = experiment: Herbicidal pre-emergence action 2a (greenhouse pots, visual scoring); assay type: in vivo, Matricaria inodora; conditions: dosage 320 g/ha, visual scoring after about 3 weeks vs untreated controls
How it was run: as §2

MATIN [25] = experiment: Herbicidal post-emergence action 1a (greenhouse pots, visual rating); assay type: in vivo, Matricaria inodora; conditions: visual rating about 3 weeks after treatment
How it was run: as §4

PHBPU [26] = experiment: as above; assay type: in vivo, Pharbitis purpurea; conditions: visual rating about 3 weeks after treatment
How it was run: as §4

PHBPU [27] = experiment: Herbicidal pre-emergence action 2a (greenhouse pots, visual scoring); assay type: in vivo, Pharbitis purpurea; conditions: dosage 320 g/ha, visual scoring after about 3 weeks vs untreated controls
Text: (§5) [table] a) Seeds of monocotyledonous and dicotyledonous weed plants and crop plants are placed in plastic or organic plant pots and covered with soil. The compounds of the invention, formulated in the form of wettable powders (WP) or as emulsion concentrates (EC), are then applied onto the surface of the covering soil as aqueous suspension or emulsion with addition of 0.5% additive at a water application rate of 600 1/ha (converted). After the treatment, the pots are placed in a greenhouse and kept under good growth conditions for the trial plants. After about 3 weeks, the effect of the preparations is scored visually in comparison with untreated controls as percentages. For example, 100% activity=the plants have died, 0% activity=like control plants. Tables B1 to B15 below show the effects of selected compounds of the general formula (I) according to Tables 1 and 2 on various harmful plants and an application rate corresponding to 320 g/ha and/or 80 g/ha, which were obtained by the experimental procedure mentioned above.

ABUTH [28] = experiment: as above; assay type: in vivo, Abutilon theophrasti; conditions: dosage 320 g/ha, visual scoring after about 3 weeks vs untreated controls
Text: as §5

VERPE [29] = experiment: as above; assay type: in vivo, Veronica persica; conditions: dosage 320 g/ha, visual scoring after about 3 weeks vs untreated controls
How it was run: as §2

## COC(=O)COc1nn(-c2cnccn2)c(-c2ccnc(F)c2)c1Br [Example I-09]
STEME [1]
  Pre-emergence action at 1280 g/ha against STEME in %: 100%
DIGSA
  Pre-emergence action against DIGSA in %: 100%
HORMU; Dosage 80 g/ha
  Post-emergence action against HORMU in %: 80%
HORMU; Dosage 320 g/ha
  Post-emergence action against HORMU in %: 90%
SETVI [2]
  Pre-emergence action against SETVI in %: 90%
AVEFA [3]
  Pre-emergence action against AVEFA in %: 90%
MATIN [4]
  Pre-emergence action at 1280 g/ha against MATIN in %: 100%
LOLRI [5]; Dosage 320 g/ha
  Post-emergence action against LOLRI in %: 90%
POAAN
  Pre-emergence action at 1280 g/ha against POAAN in %: 100%
ECHCG [6]
  Pre-emergence action against ECHCG in %: 100%
VIOTR [7]; dosage 80 g/ha
  Post-emergence action against VIOTR in %: 90%
VIOTR [7]; dosage 320 g/ha
  Post-emergence action against VIOTR in %: 90%
POLCO [8]; dosage 320 g/ha
  Post-emergence action against POLCO in %: 100%
POLCO [9]
  Pre-emergence action against POLCO in %: 100%
ECHCG [10]; Dosage 80 g/ha
  Post-emergence action against ECHCG in %: 80%
ECHCG [10]; Dosage 320 g/ha
  Post-emergence action against ECHCG in %: 80%
LOLRI [11]
  Pre-emergence action against LOLRI in %: 90%
ECHCG [12]
  Pre-emergence action at 1280 g/ha against ECHCG in %: 100%
ALOMY [13]
  Pre-emergence action against ALOMY in %: 90%
VERPE [14]; dosage 80 g/ha
  Post-emergence action against VERPE in %: 90%
VIOTR [15]
  Pre-emergence action against VIOTR in %: 90%
ALOMY [16]; Dosage 80 g/ha
  Post-emergence action against ALOMY in %: 80%
ALOMY [16]; Dosage 320 g/ha
  Post-emergence action against ALOMY in %: 90%
AMARE [17]
  Pre-emergence action against AMARE in %: 100%
STEME [18]
  Post-emergence action against STEME in %: 80%
AVEFA [19]; Dosage 80 g/ha
  Post-emergence action against AVEFA in %: 90%
AVEFA [19]; Dosage 320 g/ha
  Post-emergence action against AVEFA in %: 90%
AMARE [20]
  Pre-emergence action at 1280 g/ha against AMARE in %: 90%

## C[C@@H](Oc1nn(-c2cnccn2)c(-c2cncc(F)c2)c1Cl)C(=O)O [Example I-97]
SETVI [21]; Dosage 80 g/ha
  Post-emergence action against SETVI in %: 90%
SETVI [21]; Dosage 320 g/ha
  Post-emergence action against SETVI in %: 90%
SETVI [2]
  Pre-emergence action against SETVI in %: 100%
AVEFA [3]
  Pre-emergence action against AVEFA in %: 90%
LOLRI [5]; Dosage 80 g/ha
  Post-emergence action against LOLRI in %: 90%
LOLRI [5]; Dosage 320 g/ha
  Post-emergence action against LOLRI in %: 100%
POLCO [8]; dosage 80 g/ha
  Post-emergence action against POLCO in %: 90%
POLCO [8]; dosage 320 g/ha
  Post-emergence action against POLCO in %: 90%
ABUTH [22]; dosage 80 g/ha
  Post-emergence action against ABUTH in %: 90%
ABUTH [22]; dosage 320 g/ha
  Post-emergence action against ABUTH in %: 90%
AMARE [23]; dosage 80 g/ha
  Post-emergence action against AMARE in %: 90%
AMARE [23]; dosage 320 g/ha
  Post-emergence action against AMARE in %: 90%
MATIN [24]
  Pre-emergence action against MATIN in %: 100%
MATIN [25]; dosage 80 g/ha
  Post-emergence action against MATIN in %: 90%
MATIN [25]; dosage 320 g/ha
  Post-emergence action against MATIN in %: 90%
PHBPU [26]; dosage 80 g/ha
  Post-emergence action against PHBPU in %: 90%
PHBPU [26]; dosage 320 g/ha
  Post-emergence action against PHBPU in %: 100%
POLCO [9]
  Pre-emergence action against POLCO in %: 90%
ECHCG [10]; Dosage 80 g/ha
  Post-emergence action against ECHCG in %: 90%
ECHCG [10]; Dosage 320 g/ha
  Post-emergence action against ECHCG in %: 90%
LOLRI [11]
  Pre-emergence action against LOLRI in %: 100%
ALOMY [13]
  Pre-emergence action against ALOMY in %: 100%
PHBPU [27]
  Pre-emergence action against PHBPU in %: 100%
VERPE [14]; dosage 80 g/ha
  Post-emergence action against VERPE in %: 90%
VERPE [14]; dosage 320 g/ha
  Post-emergence action against VERPE in %: 90%
ALOMY [16]; Dosage 320 g/ha
  Post-emergence action against ALOMY in %: 90%
AMARE [17]
  Pre-emergence action against AMARE in %: 100%
ABUTH [28]
  Pre-emergence action against ABUTH in %: 90%
AVEFA [19]; Dosage 320 g/ha
  Post-emergence action against AVEFA in %: 100%
VERPE [29]
  Pre-emergence action against VERPE in %: 100%
